From ChEMBL document CHEMBL1201862, “PubChem BioAssay data set” (2004) come the findings set out here.

Common to all, as to experiment: NCI tumour cell line growth inhibition, 48 h
Experiment [1] concerns HL-60.
In experiment [2] the test system is SNB-75.
In experiment [3] the test system is Malme-3M.
The subject of experiment [4] is U-251.
The test system of experiment [5] is UACC-62.
For experiment [6], the system named is SK-OV-3.
Experiment [7] relates to ACHN.
In experiment [8] the test system is SF-268.
For experiment [9], the system named is SN12C.
The test system of experiment [10] is MDA-MB-435.
The subject of experiment [11] is EKVX.
In experiment [12] the test system is OVCAR-8.
Experiment [13] deals with NCI-H522.
In experiment [14] the test system is SNB-19.
For experiment [15], the system named is HOP-92.
Experiment [16] relates to PC-3.
In experiment [17] the test system is NCI-H23.
Experiment [18] has as its system CAKI-1.
Experiment [19] has as its system COLO 205.
Experiment [20] concerns HCT-15.

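Growth conditions: 96-well plates. Treatment: test compound, 48 hours, 5 concentrations. Analysis: linear interpolation between bracketing concentrations; unreached endpoints set to highest concentration. GI50: concentration for 50% inhibition of growth.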 Active and inactive are the calls of the source. Rule as the data show it: active = GI50 up to about 1.1 µM and inactive = higher.

Turning to `Cc1cn(C2CC(O)C(COC(=O)NCCC(F)(F)C(F)(F)C(F)(F)C(F)(F)F)O2)c(=O)[nH]c1=O` (stereo unspecified), the GI50 in experiment [1] is > 100 µM (inactive); in [2] it was 54.7 µM (inactive); in [3], > 100 µM (inactive); in experiment [4], > 100 µM (inactive); in experiment [5] it was > 100 µM (inactive); in experiment [6] it was > 100 µM (inactive). Besides, the GI50 was > 100 µM (inactive) in experiment [7]; > 100 µM (inactive) in experiment [8]; > 100 µM (inactive) in experiment [9]; 75.2 µM (inactive) in experiment [10]; > 100 µM (inactive) in experiment [11]; > 100 µM (inactive) in [12]. The GI50 in experiment [13] was > 100 µM (inactive); in experiment [14], > 100 µM (inactive); in experiment [15], 54.6 µM (inactive); in experiment [16] it was > 100 µM (inactive); in [17] it was > 100 µM (inactive); in experiment [18], > 100 µM (inactive). The GI50 in experiment [19] was > 100 µM (inactive).

Consider `CCOC(=O)n1c2ccccc2c2c(O)c(OC)c3c(c21)C(=O)NC3=O`, for which the GI50 in experiment [20] was 17.3 µM; in [1], 20.7 µM (inactive); in experiment [2], 37.8 µM (inactive); in experiment [3], 35.9 µM (inactive); in [4], 32 µM (inactive); in experiment [5], 37.7 µM (inactive). The GI50 in experiment [6] was 34.6 µM (inactive); in [7], 19.8 µM (inactive); in experiment [9], 83.6 µM (inactive); in [10], 60 µM (inactive); in [11], > 100 µM (inactive); in [12], 31.8 µM (inactive). Also, the GI50 is 22.6 µM (inactive) in experiment [13]; 84.5 µM (inactive) in experiment [14]; 76 µM (inactive) in [15]; 45.8 µM (inactive) in [16]; 52.5 µM (inactive) in experiment [17]; 20.7 µM (inactive) in experiment [18]. For the same molecule, in experiment [19], the GI50 is 21.4 µM (inactive).

`CN(C)CCCNc1ccc2nnn3c4ccc([N+](=O)[O-])cc4c(=O)c1c23`: the GI50 was 0.916 µM in experiment [20]; 1.83 µM (inactive) in [1]; 1.51 µM (inactive) in experiment [2]; 3.56 µM (inactive) in [3]; 0.738 µM (active) in [4]; 4.33 µM (inactive) in experiment [5]. The GI50 was 1.79 µM (inactive) in experiment [6]; 0.542 µM (active) in [7]; 1.14 µM (inactive) in experiment [8]; 0.695 µM (active) in experiment [9]; 1.49 µM (inactive) in experiment [10]; 2.56 µM (inactive) in experiment [11]. For the same molecule, the GI50 in [12] is 0.597 µM (active); in experiment [13], 1.63 µM (inactive); in experiment [14], 2.73 µM (inactive); in experiment [15] it was 1.57 µM (inactive); in experiment [16], 1.28 µM (inactive); in [17] it was 2.03 µM (inactive). For the same molecule, the GI50 was 1.73 µM (inactive) in experiment [18] and 0.834 µM (active) in [19].

As to `C/C(=N\Nc1ccccc1)C(CN(C)C)C(c1ccccc1)c1c(O)c2ccccc2oc1=O` (stereo unspecified), the GI50 in [20] was above 100 µM; in experiment [1], > 59.8 µM (inactive); in [2], > 77.3 µM (inactive); in [3] it was > 83 µM (inactive); in experiment [4], > 100 µM (inactive); in experiment [5], > 100 µM (inactive). For the same molecule, the GI50 in experiment [6], in experiment [7], in experiment [8], in [9], in experiment [10] and in experiment [11] was > 100 µM (inactive) throughout. The GI50 in experiment [12] is > 100 µM (inactive); in experiment [13], > 100 µM (inactive); in [14], > 100 µM (inactive); in [15], > 35.2 µM (inactive); in [16], > 100 µM (inactive); in experiment [17], > 100 µM (inactive). Also, the figures for the GI50 in experiment [18] and in experiment [19] were > 100 µM (inactive) and > 68.9 µM (inactive), respectively.

For the molecule `N/C(=N\N=C\c1cc2ccccc2s1)c1cnccn1`, the GI50 in experiment [20] is above 100 µM; in experiment [1], > 100 µM (inactive); in experiment [2], 29.3 µM (inactive); in experiment [4] it was > 100 µM (inactive); in experiment [5], > 100 µM (inactive); in experiment [6] it was > 100 µM (inactive). The GI50 in [7] is > 100 µM (inactive); in experiment [8], > 100 µM (inactive); in experiment [9], > 100 µM (inactive); in experiment [10] it was > 100 µM (inactive); in experiment [11] it was > 100 µM (inactive); in [12], 78.2 µM (inactive). The GI50 in experiment [13] was > 100 µM (inactive); in [14] it was 88.3 µM (inactive); in experiment [15], > 100 µM (inactive); in experiment [16], 92.3 µM (inactive); in experiment [17], > 100 µM (inactive); in experiment [18] it was > 100 µM (inactive). In addition, the GI50 in [19] was > 100 µM (inactive).

With `N#Cc1cnn2ccn(C3OC(COC(=O)c4ccccc4)C(OC(=O)c4ccccc4)C3OC(=O)c3ccccc3)c12` (stereo unspecified), the GI50 in experiment [20] is above 21.5 µM; in experiment [1], > 21.5 µM (inactive); in experiment [2] it was 1 µM (active); in experiment [3] it was > 21.5 µM (inactive); in [4], > 21.5 µM (inactive); in [5], > 21.5 µM (inactive). The GI50 in [6], in experiment [7], in [8], in [9], in experiment [10] and in experiment [11] was > 21.5 µM (inactive) each time. In addition, the GI50 in [12] is > 46.5 µM (inactive); in experiment [13] it was > 21.5 µM (inactive); in experiment [14] it was > 21.5 µM (inactive); in [15], > 31.6 µM (inactive); in [16], 5.56 µM (inactive); in experiment [17], > 21.5 µM (inactive). For the same molecule, the values for the GI50 in experiment [18] and in [19] were 17.2 µM (inactive) and > 21.5 µM (inactive), respectively.

As for `CSC(=S)N/N=C(\C)c1cccc(C)n1`, the GI50 in experiment [20] is 0.375 µM; in experiment [1], 0.0764 µM (active); in experiment [2], 1.86 µM (inactive); in [3], 0.809 µM (active); in experiment [4], 0.776 µM (active); in [5], 0.472 µM (active). For the same molecule, the GI50 in experiment [6] was 0.719 µM (active); in experiment [7], 0.265 µM (active); in [8], 0.708 µM (active); in [9], 1.28 µM (inactive); in experiment [10], 1.35 µM (inactive); in experiment [11], 1.16 µM (inactive). For the same molecule, the GI50 in [12] was 0.769 µM (active); in [13], 0.0815 µM (active); in experiment [14] it was 4.04 µM (inactive); in experiment [15], 1.1 µM (active); in experiment [16], 0.265 µM (active); in [17], 0.975 µM (active). Also, the GI50 in experiment [18] is 1.1 µM (active); in experiment [19], 0.0513 µM (active).

For the molecule `NS(=O)(=O)c1ccc(NC2(C(=O)O)CCCC2)cc1`, the GI50 in experiment [20] is above 100 µM; in experiment [1], > 100 µM (inactive); in experiment [2] it was > 100 µM (inactive); in experiment [3], > 100 µM (inactive); in experiment [4] it was > 100 µM (inactive); in experiment [5], > 100 µM (inactive). In addition, the GI50 in [6], in [7], in experiment [8], in [9], in experiment [10] and in [11] was > 100 µM (inactive) each time. Further, the GI50 in [12], in experiment [13], in experiment [14], in experiment [15], in experiment [16] and in experiment [17] was > 100 µM (inactive) each time. The GI50 in experiment [18] and in experiment [19] was > 100 µM (inactive) in each case.

With `COc1ccc2[nH]c3c4c(ccc3c2c1)C(=O)C=CC4=O`, the GI50 is 4.42 µM in [20]; 0.439 µM (active) in [1]; 18.8 µM (inactive) in [2]; 7.73 µM (inactive) in experiment [3]; 17.1 µM (inactive) in [4]; 16.7 µM (inactive) in [5]. Moreover, the GI50 was 43.4 µM (inactive) in [6]; 4.76 µM (inactive) in experiment [7]; 17.1 µM (inactive) in experiment [8]; 11 µM (inactive) in experiment [9]; 25.9 µM (inactive) in [10]; 16.4 µM (inactive) in experiment [11]. Further, the GI50 in [12] was 5.22 µM (inactive); in experiment [13] it was 1.74 µM (inactive); in experiment [14] it was 40.5 µM (inactive); in experiment [15] it was 3.34 µM (inactive); in experiment [16] it was 18.7 µM (inactive); in experiment [17] it was 12.7 µM (inactive). The GI50 in experiment [18] is 9.25 µM (inactive); in experiment [19], 5.3 µM (inactive).

`C1=Cc2cccc3occ(c23)C=C1`: the GI50 in experiment [20] was 48 µM; in experiment [1], 20.4 µM (inactive); in experiment [3], > 100 µM (inactive); in experiment [4], 36.3 µM (inactive); in experiment [5], 39.3 µM (inactive); in experiment [6], > 100 µM (inactive). In addition, the GI50 in experiment [7] was 58.1 µM (inactive); in [8], > 100 µM (inactive); in experiment [9] it was > 100 µM (inactive); in experiment [10], 82 µM (inactive); in [11], 49.3 µM (inactive); in [12], 46.8 µM (inactive). The GI50 in [13] is 33 µM (inactive); in experiment [14], 95.1 µM (inactive); in experiment [15] it was 91.8 µM (inactive); in [16] it was 66.4 µM (inactive); in experiment [17], 84.5 µM (inactive); in [18], > 100 µM (inactive). Besides, the GI50 in experiment [19] is 29 µM (inactive).
